Test systems include SN12C renal; SK-MEL-28 melanoma; RPMI-8226 leukemia; SNB-19 CNS; RXF 393 renal; KM12 colon; OVCAR-5 ovarian; HS 578T breast; TK-10 renal; NCI-H460 lung.
Holding throughout (experiment): NCI anticancer screen, dose series, 48 h

This note sets out measurements from PubChem BioAssay (NCI).

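Assay format: 96-well plates, 48-hour exposure. GI50: concentration for 50% inhibition of growth. TGI: total growth inhibition.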 A value given as a limit tells only on which side of the number the result lay.

Turning to `O=C1C(=O)N(c2cccc(C(F)(F)F)c2)C(=O)C(=O)C1c1nc2ccccc2s1`, the TGI in the assay on SN12C renal, with SK-MEL-28 melanoma, in the assay with RPMI-8226 leukemia, in the assay with SNB-19 CNS, in the assay on RXF 393 renal and with KM12 colon was above 100 µM in each case. Further, the TGI in the assay with OVCAR-5 ovarian, in the assay on HS 578T breast, in the assay on TK-10 renal and in the assay with NCI-H460 lung was above 100 µM in each case.

On to `CC(=O)O[C@H]1C(=O)[C@@]2(C)[C@H]([C@H](OC(=O)c3ccccc3)[C@@]3(O)C[C@H](O)C(C)=C1C3(C)C)[C@]1(OC(C)=O)CO[C@@H]1C[C@@H]2O`, for which the TGI in the assay with SN12C renal, in the assay on SK-MEL-28 melanoma, in the assay with RPMI-8226 leukemia, in the assay on SNB-19 CNS, in the assay with RXF 393 renal and with KM12 colon was above 100 µM in each case. Further, the TGI was above 100 µM with OVCAR-5 ovarian, 96.3 µM in the assay with HS 578T breast, above 100 µM in the assay on TK-10 renal and above 100 µM in the assay on NCI-H460 lung.

On to `CC(=O)NC(CCCCN(Cc1ccccc1)C(=O)N(CCCl)N=O)C(=O)NCc1ccccc1` (stereo not drawn), for which the TGI is above 77.8 µM with SN12C renal; above 100 µM in the assay on SK-MEL-28 melanoma; 79 µM in the assay on RPMI-8226 leukemia; 60.4 µM in the assay on SNB-19 CNS; 51.3 µM with RXF 393 renal; 63.7 µM in the assay on KM12 colon. For the same compound, the TGI is above 87.3 µM with OVCAR-5 ovarian, 49.7 µM in the assay on HS 578T breast, 73.9 µM with TK-10 renal and 42.9 µM in the assay on NCI-H460 lung.

For the compound `CC(O)CN1c2ccccc2Sc2ccc(Cl)cc21` (stereo not drawn), the TGI with SN12C renal, in the assay with SK-MEL-28 melanoma, in the assay with RPMI-8226 leukemia, with SNB-19 CNS, in the assay on RXF 393 renal and with KM12 colon was above 10 µM each time. The TGI in the assay on OVCAR-5 ovarian, with HS 578T breast, in the assay on TK-10 renal and in the assay on NCI-H460 lung was above 10 µM each time.

`CC[C@@H](C)Nc1cc(C(=O)NC2CC3CCC(C2)N3c2ccc(C(=O)C3CC3)cn2)c(C)cc1C(N)=O` (stereo partly drawn): the GI50 in the assay on SN12C renal is 0.052 µM; in the assay on SK-MEL-28 melanoma, 0.0519 µM; in the assay on RPMI-8226 leukemia it was 0.0538 µM; with SNB-19 CNS, 0.0604 µM; in the assay on RXF 393 renal, 0.0516 µM; with KM12 colon it was 0.0239 µM. The GI50 in the assay with OVCAR-5 ovarian was 0.0706 µM; in the assay with HS 578T breast, 0.186 µM; in the assay with TK-10 renal it was 0.0387 µM; with NCI-H460 lung, 0.0299 µM. Also, the TGI in the assay on SN12C renal is above 100 µM; in the assay on SK-MEL-28 melanoma, above 100 µM; with RPMI-8226 leukemia, above 74.3 µM; with SNB-19 CNS, above 100 µM; in the assay on RXF 393 renal it was above 100 µM; with KM12 colon it was 0.0884 µM. In addition, the TGI is above 100 µM in the assay with OVCAR-5 ovarian, above 100 µM in the assay on HS 578T breast, 89 µM in the assay with TK-10 renal and above 54.2 µM in the assay with NCI-H460 lung.

In the case of `NC(=Nc1nc(-c2ccccn2)cc2ccccc12)c1ccccn1`, the GI50 is 0.131 µM in the assay on SN12C renal; 0.323 µM in the assay on SK-MEL-28 melanoma; below 0.0175 µM in the assay with RPMI-8226 leukemia; 0.32 µM in the assay on RXF 393 renal; 0.336 µM with KM12 colon; 0.176 µM in the assay with OVCAR-5 ovarian. Besides, the GI50 in the assay on HS 578T breast was 0.316 µM; with TK-10 renal, 0.198 µM; with NCI-H460 lung it was 0.099 µM. In addition, the TGI with SN12C renal is 22.7 µM; with SK-MEL-28 melanoma, above 100 µM; in the assay on RPMI-8226 leukemia, 0.515 µM; with SNB-19 CNS, above 89.5 µM; in the assay with RXF 393 renal, 0.795 µM; in the assay with KM12 colon, above 56.7 µM. Further, the TGI is above 100 µM in the assay with OVCAR-5 ovarian, above 79.4 µM with HS 578T breast and above 100 µM in the assay on TK-10 renal.

Consider `O=c1c(-c2ccc(O)cc2)coc2cc(OC3OC(CO)C(O)C(O)C3O)cc(O)c12` (stereo not drawn), for which the TGI with SN12C renal, with SK-MEL-28 melanoma, in the assay with RPMI-8226 leukemia, with SNB-19 CNS, in the assay with RXF 393 renal and in the assay on KM12 colon was above 100 µM each time. The TGI in the assay with OVCAR-5 ovarian, with HS 578T breast, with TK-10 renal and in the assay on NCI-H460 lung was above 100 µM in each case. Moreover, the GI50 was above 100 µM with SK-MEL-28 melanoma; above 10 µM in the assay on RPMI-8226 leukemia; above 10 µM with RXF 393 renal; above 100 µM in the assay on OVCAR-5 ovarian; above 10 µM in the assay on NCI-H460 lung.

As for `N#Cc1c(N)nc(N2CCSCC2)c(C#N)c1-c1ccc(O)cc1`, the GI50 in the assay on SN12C renal is 19.8 µM; in the assay with SK-MEL-28 melanoma, 15.5 µM; in the assay on RPMI-8226 leukemia, 17.3 µM; in the assay on SNB-19 CNS, 27.9 µM; with RXF 393 renal, 35.3 µM; with KM12 colon, 20.2 µM. Further, the GI50 with OVCAR-5 ovarian was 16.1 µM; in the assay on HS 578T breast it was 25.1 µM; in the assay with TK-10 renal, 30.4 µM; in the assay with NCI-H460 lung, 13.4 µM. Also, the TGI in the assay on SN12C renal is 50.2 µM; with SK-MEL-28 melanoma, 35 µM; in the assay on RPMI-8226 leukemia, 48.5 µM; in the assay on SNB-19 CNS, 98.9 µM; in the assay on RXF 393 renal it was above 100 µM; in the assay on KM12 colon, 92.2 µM. Moreover, the TGI in the assay on OVCAR-5 ovarian was 50 µM; in the assay on HS 578T breast, above 100 µM; in the assay on TK-10 renal it was above 100 µM; in the assay with NCI-H460 lung, 29.5 µM.

`CC1CC(C)C2=NOS3=C2C1=NO3` (stereo not drawn): the TGI in the assay on SN12C renal, in the assay on SK-MEL-28 melanoma, in the assay on RPMI-8226 leukemia, with SNB-19 CNS, with RXF 393 renal and with KM12 colon was above 100 µM in each case. The TGI in the assay on OVCAR-5 ovarian, with HS 578T breast, in the assay on TK-10 renal and in the assay with NCI-H460 lung was above 100 µM each time.

Take `CCCCCCN(C)Cc1ccc(OCCOc2ccc(CN(C)CCCCCC)cc2)cc1`: the GI50 in the assay with SN12C renal is 1.35 µM; in the assay on SK-MEL-28 melanoma, 1.45 µM; with RPMI-8226 leukemia it was 1.62 µM; in the assay on SNB-19 CNS it was 1.71 µM; with RXF 393 renal it was 0.834 µM; with KM12 colon, 1.47 µM. The GI50 in the assay with OVCAR-5 ovarian was 1.46 µM; with HS 578T breast, 1.47 µM; with TK-10 renal, 1.29 µM; in the assay with NCI-H460 lung it was 1.35 µM. Further, the TGI with SN12C renal came to 3.08 µM; with SK-MEL-28 melanoma, 2.88 µM; in the assay on RPMI-8226 leukemia, 25.4 µM; in the assay on SNB-19 CNS, 3.87 µM; in the assay on RXF 393 renal it was 2.15 µM; in the assay with KM12 colon, 2.84 µM. Also, the TGI in the assay on OVCAR-5 ovarian amounted to 4.03 µM; in the assay on HS 578T breast it was 3.97 µM; in the assay on TK-10 renal it was 2.6 µM; with NCI-H460 lung, 2.99 µM.
